{
  "source": "patent US9872919B2",
  "about": "“Prodrugs for selective anticancer therapy” (THE RESEARCH FOUNDATION FOR THE STATE UNIVERSITY OF NEW YORK, priority 2012, dated 2018)",
  "key": {"[1]": {"tested_on": "HCT116 xenograft tumors", "type": "in vivo", "procedure": "(§1) FIG. 29. In vivo anticancer efficacy of Boc-KAc-Puro. (a) Tumor growth in HCT116 xenograft model. Animals were treated with acidified saline control or Boc-KAc-Puro (50 or 150 mg/kg). Values are mean±s.d. (n=5 mice per group). ***P<0.001 compared to the control group. P=0.000716 (50 mg/kg), P=0.000349 (150 mg/kg) at 10 d. (b) Body weight change during the treatment in a was monitored as a sign of general animal health. Values are mean±s.d. (c) Tumor growth in HT29 xenograft model. Animals were treated with acidified saline control or Boc-KAc-Puro (150 mg/kg). Values are mean±s.d. (n=5 mice per group). ***P<0.001 compared to the control group. P=0.000514 (150 mg/kg) at 10 d. (d) Body weight change during the treatment in c was monitored as a sign of general animal health. Values are mean±s.d. (e) Levels of Puro-incorporated proteins were monitored by immunoblotting. Animals bearing HT29 xenograft tumor were given daily intraperitoneal administration of the prodrug at 150 mg/kg/dose for 3 d, followed by preparation of tissue lysates. The lower panel (anti-α-Tubulin) served as a loading control.\nAthymic mice (NCr, female, age 6 weeks, Taconic) were subcutaneously injected with 5×10^5 cells (HCT116 or HT29) into the lower flank, then treatment was initiated when small palpable tumors had developed (>3 mm in diameter). […] Tumor volumes and body weight were monitored daily. […] Data were expressed as mean±s.d. […]"}, "[2]": {"tested_on": "breast cancer cells (MCF-7 and MDA-MB-231)", "assay": "PI staining cytotoxicity, breast cancer cells", "type": "cell-based, human", "procedure": "FIG. 17. Selective cytotoxicity by BKAc-Puro on breast cancer cells. Normal mammary gland epithelial cells (Eph4) and breast cancer cells (MCF-7 and MDA-MB-231) were grown and analyzed as in FIG. 10. BF, bright field. PI, fluorescent PI channel. BKAc-Puro can selectively cause cell death in breast cancer cells (MCF-7 and MDA-MB-231) while leaving normal Eph4 cells unharmed.\n(§2) Cell number was determined by cell counting using improved Neubauer hemacytometer. Cell viability was calculated as the number of viable cells divided by the total number of cells using Trypan Blue Stain (Invitrogen) to distinguish non-viable cells. Data were obtained from duplicated samples with quadruplicate measurements. MTS based cell viability assay was performed using CellTiter 96 Aqueous Cell Proliferation Assay (Promega) according to the manufacturer's instruction. […] After additional 2-3 h incubation, the absorbance of the formazan at 490 nm was measured by the microplate reader. […] Determination of non-viable cells using PI staining was performed by adding 1 μg/ml of PI solution (Sigma) to the cell culture, prior to the examination under fluorescence microscopy (Axiovert 3, Carl Zeiss) through a×32 objective equipped with a digital imaging processor (Infinity 3, Lumenera)."}, "[3]": {"tested_on": "malignant colon cancer cells with high HDAC and CTSL activity", "assay": "Cell number, trypan blue viability and PI staining, malignant colon cancer cells", "type": "cell-based, human", "details": "54 μM", "procedure": "FIG. 9. The colon cancer cell lines were grown for 5 d either with vehicle control DMSO (gray symbols) or 54 μM BKAc-Puro (red and blue symbols), and cell number was determined at the indicated time points.\nFIG. 10. The cell lines were grown as in FIG. 8, cell viability was determined by trypan blue at the indicated time points, and is presented as the percentage of live cells treated with vehicle control (gray symbols) or BKAc-Puro (red and blue symbols).\nFIG. 11. The cell lines were grown as in FIG. 8, and dead cells were determined after 80 h by PI signal under fluorescent microscope. BF, bright field. PI, fluorescent PI channel.\nFIG. 12. Selective cytotoxicity by BKAc-Puro. The cell lines were grown and analyzed as in FIG. 10. […]\nas §2, with “cells.” for “cells. Data were obtained from duplicated samples with quadruplicate measurements. MTS based cell viability assay was performed using CellTiter 96 Aqueous Cell Proliferation Assay (Promega) according to the manufacturer's instruction.”"}, "[4]": {"tested_on": "non-malignant Caco-2 cells", "assay": "MTS cell viability assay, Caco-2", "type": "cell-based, human", "procedure": "FIG. 13. Inhibition of cell viability by BKAc-Puro is presented in dose-response curve format for the same cell lines as in FIG. 8. The cell lines were treated with DMSO or the indicated doses of agent (4.22, 8.44, 16.9, 33.8, 67.5, or 135 μM) for 5 d followed by MTS assay. Data represent mean values of triplicate mesurements±s.d. (n=3). IC50 values were fit by logistic regression.\nas §2"}, "[5]": {"tested_on": "HT29 xenograft tumor, muscle and kidney", "assay": "Immunological detection of Puro-labeled proteins in tissues of HT29 xenograft mice", "type": "in vivo", "details": "150 mg/kg/dose daily intraperitoneal for 3 d", "procedure": "as §1, with “Animals bearing HT29 xenograft tumor were given daily intraperitoneal administration of the prodrug at 150 mg/kg/dose for 3 d, followed by preparation of tissue lysates. The lower panel (anti-α-Tubulin) served as a loading control.” left out\nCultured cells or tissue samples were sonicated in RIPA lysis buffer (1% NP-40, 0.1% SDS, 50 mM Tris-HCl pH 7.4, 150 mM NaCl, 0.5% sodium deoxycholate, 1 mM EDTA) supplemented with PMSF and protease inhibitor cocktail (Roche) on ice followed by clarification. […] Proteins of interest were detected with anti-mouse secondary antibody by chemiluminescence (ECL Kit, GE Healthcare Life Sciences). […]"}},
  "data": [
    {"smiles": "COc1ccc(C[C@H](NC(=O)[C@H](CCCCNC(C)=O)NC(=O)OC(C)(C)C)C(=O)N[C@H]2[C@@H](O)[C@H](n3cnc4c(N(C)C)ncnc43)O[C@@H]2CO)cc1", "note": "[BKAc-Puro, N-[3′-(α-Amino-p-methoxyhydrocinnamamido)-3′-deoxy-N,N-dimethyldenosinyl]-N-α-(t-butoxycarbonyl)-N-ε-acetyl-L-lysineamide]", "values": [
      {"measurement": "tumor growth", "setting": "[1]; 50 and 150 mg/kg/dose daily intraperitoneally for 10 d", "result": "dose-dependent inhibition of tumor growth"},
      {"measurement": "tumor mass vs acidified saline control", "setting": "[1]; P<0.001, 50 and 150 mg/kg, 10 d", "result": "significantly smaller tumor mass"},
      {"measurement": "cell death", "setting": "[2]", "result": "selectively caused cell death"},
      {"measurement": "cell proliferation (cell number)", "setting": "[3]; 5 d, all four malignant cells", "result": "impaired the proliferation"},
      {"measurement": "cell death (trypan blue exclusion, morphology, PI staining)", "setting": "[3]; colon cell line panel", "result": "massive cell death wass detected only in the malignant cells"},
      {"measurement": "highest inactive dose relative to dose of parental Puro effective to these cells", "setting": "[4]; Caco-2, 135 μM BKAc-Puro vs parental Puro", "result": "more than 30 times"},
      {"measurement": "IC50", "setting": "[4]; MTS, 5 d, sufficient inhibition not achieved with doses up to 135 μM", "result": "> 135", "unit": "µM"},
      {"measurement": "intensity of Puro incorporation in tissues", "setting": "[5]", "result": "substantially greater in tumors compared with normal muscle and kidney"}
    ]}
  ]
}
